Assay in all cases: inhibition of tumour cell growth, NCI panel, 48 h
The test system of test [1] is MOLT-4 leukemia.
Test [2] relates to HCT-15 colon.
For test [3], the system named is OVCAR-3 ovarian.
Test [4] has as its system DMS 114 small cell lung.
Test [5] has as its system SNB-19 CNS.
Test [6] relates to HCC-2998 colon.
The subject of test [7] is DLD-1 colon.
Test [8] deals with SNB-78 CNS.
For test [9], the system named is MDA-MB-231 breast.
In test [10] the test system is BT-549 breast.

Where “and” joins values, the source holds several entries; their conditions need not be identical. Identical values can stand only once.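 Assay format: 96-well plates, 48-hour exposure. GI50 marks 50% less growth. TGI: concentration producing complete growth inhibition.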

In the case of `COc1c2c(c(O)c3c4c(c(C)cc13)C1OC3(C(OC)OC5CC(C)(O)C(OC6CC(C)(O)C(O)C(C)O6)C(C)O5)OC1C(OC)(O4)C31CO1)C(=O)C(O)CC2OC1CC(C)(O)C(OC(C)=O)C(C)O1` (stereo not given), the TGI was 0.102 µM in [1]; 1.58 µM in test [2]; below 0.01 µM in test [3]; below 0.01 µM in [4]; 0.739 µM in test [5]; below 0.01 µM in [6]. Moreover, the TGI in test [7] was 4.17 µM; in [8], below 0.0448 µM.
`O=C(Cc1nc2ccccc2s1)C(=O)Nc1cccc(C(F)(F)F)c1`: the TGI in test [1], in test [2], in [3], in test [4], in test [5] and in [6] was above 100 µM in each case. Moreover, the TGI in [7] and in [8] was above 100 µM in each case.
For the molecule `Cc1c(-c2ccc(-c3ccccc3F)cc2)nc2ccc(F)cc2c1C(=O)O`, the GI50 in [1] is 0.5 µM; in test [2] it was 0.0764 µM and 0.5 µM; in test [3] it was 10.1 µM and 23 µM; in test [9], 89.8 µM and 30.5 µM; in test [10], 17.4 µM and 57.4 µM; in test [5], 0.864 µM and 1.73 µM. Moreover, the GI50 was 19.7 µM and 55.9 µM in test [6]; 1.58 µM in test [7]. Further, the TGI was 66.7 µM and 71.7 µM and 294 µM in [1]; 114 µM and 153 µM in test [2]; 27.5 µM and 91.6 µM and 139 µM in [3]; 146 µM and 250 µM in [9]; 137 µM and 849 µM in test [10]; 164 µM and 513 µM in test [5]. Also, the TGI in [6] is 115 µM and 129 µM; in [7], 146 µM and 1040 µM.
Turning to `C[C@]12CC[C@H](OC(=O)Nc3ccccc3)CC1=CC[C@@H]1C2CC[C@]2(C)/C(=N/OC(=O)Nc3ccccc3)CCC12` (stereo not given in full), the TGI is above 100 µM in test [1]; 3.31 µM in [2]; above 100 µM in test [3]; above 100 µM in test [4]; above 100 µM in test [5]; above 100 µM in test [6]. Moreover, in [8], the TGI was above 100 µM.
`CCOC(=O)C(Cc1cc(OC)c(CC(C(=O)OCC)C(=O)OCC)cc1OC)C(=O)OCC`: the TGI in test [1], in [2], in [3], in [4], in test [9] and in test [10] was above 100 µM throughout. The TGI in [5], in test [6], in test [7] and in [8] was above 100 µM in each case.
Regarding `O=C1N=C2N=C(c3ccc(Cl)cc3)N(c3ccc(Cl)cc3)N2Sc2ccccc21`, the TGI in test [1], in test [2], in test [3], in test [4], in test [5] and in test [6] was above 100 µM throughout. For the same molecule, the TGI in test [7] and in test [8] was above 100 µM throughout.
`O=C(Nc1ccccc1)N1C(c2ccccc2)=N[C@@H](c2ccccc2)[C@@H]1c1ccccc1`: the TGI in test [1] stood at 44.5 µM; in [2] it was 60.4 µM; in test [3], 62.8 µM; in test [4], 29.9 µM; in [5] it was 97.9 µM; in [6], 35.2 µM. For the same molecule, the TGI in [7] was 35.6 µM; in test [8] it was above 100 µM.
Take `C=C(c1ccccc1)c1cc2c(=O)[nH]ccc2n1C`: the TGI in test [1] was above 100 µM; in test [2], above 100 µM; in test [3], above 100 µM; in test [4], 50.1 µM; in [5] it was above 100 µM; in test [6], above 100 µM. In addition, the TGI in test [7] and in test [8] was above 100 µM each time.
As to `C/C(=C\c1ccccc1)C(=O)c1c(C)cc(C)cc1C`, the TGI in test [1], in [2], in test [3], in test [4], in test [5] and in test [7] was above 100 µM each time.
On to `C[C@@H]1CC2(C[C@@H](C)C3[C@@H](CC4(C)CCCC5C6=CC(O)(CC[C@]34C)OC6=CC(=O)OC5(C)C)O2)OC1=O` (stereo not given in full), for which the TGI in [1], in test [2], in test [3], in [4], in test [5] and in test [6] was above 100 µM each time. In [7], this molecule gave a TGI above 100 µM.
Consider `O=C(O)C1CC2C=CCC(C2)C1` (stereo not given), for which the TGI in test [1], in test [2], in test [3], in test [4], in test [5] and in test [7] was above 100 µM throughout. The same molecule yielded a TGI in [8] above 100 µM.
In the case of `CN(C)C(=S)/N=c1\ssc(=Nc2ccccc2)n1-c1ccccc1`, the TGI in test [1] was above 100 µM; in test [2], above 100 µM; in test [3], 28.3 µM; in [4], 29.8 µM; in test [6] it was 68.9 µM; in test [7], above 100 µM. The molecule also gave a TGI in [8] of 79.7 µM.
Regarding `c1ccc(N2CCN(CCN3CCc4c([nH]c5ccccc45)C3c3cccnc3)CC2)cc1` (stereo not given), the TGI in test [1], in test [2], in [3], in test [4], in test [5] and in test [6] was above 100 µM in each case. Moreover, the TGI in test [7] and in test [8] was above 100 µM each time.
As to `CNC(=O)NCCCCC(NC(C)=O)C(=O)NCc1ccccc1` (stereo not given), the TGI in [1], in test [2], in test [3], in test [4], in [5] and in [6] was above 100 µM each time. Also, the TGI in [7] and in test [8] was above 100 µM in each case.
Consider `Nc1ccc(C(=O)N/C(=C\c2ccc3c(c2)OCO3)c2nc3ccccc3s2)cc1`, for which the TGI in test [2] came out at 23.4 µM; in test [3], 30.8 µM; in test [5], 28.7 µM; in test [6] it was 27.9 µM; in test [7] it was 59.7 µM; in [8], 30.5 µM.
For the molecule `COc1ccc(OCC(=O)O)c2c1CCC(C)C2=O` (stereo not given), the TGI in test [1], in test [2], in test [3], in [4], in test [5] and in test [6] was above 100 µM throughout. In addition, the TGI in test [7] and in test [8] was above 100 µM in each case.
